According to patent US12037324B2, “Biarylmethyl heterocycles” (Université de Montréal, priority 2016, dated 2024):

Tests used:
hAT1R [1] = target: T1, hAT1R (Homo sapiens, UniProt P30556); experiment: cell-based; conditions: agonist mode; for EC50: read-out: BRET P63 EC50
T1 sequence (P30556 1-359): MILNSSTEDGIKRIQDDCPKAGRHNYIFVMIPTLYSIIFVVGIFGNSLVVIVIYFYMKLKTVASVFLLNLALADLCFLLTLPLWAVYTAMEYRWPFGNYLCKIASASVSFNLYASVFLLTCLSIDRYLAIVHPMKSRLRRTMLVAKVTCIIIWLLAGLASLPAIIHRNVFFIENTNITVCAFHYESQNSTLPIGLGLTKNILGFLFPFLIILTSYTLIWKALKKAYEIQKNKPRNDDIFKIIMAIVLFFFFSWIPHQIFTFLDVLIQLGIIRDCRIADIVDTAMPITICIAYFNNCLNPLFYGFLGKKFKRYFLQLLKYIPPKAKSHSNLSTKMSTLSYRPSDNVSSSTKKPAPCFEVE

hAT1R [2] = target: T1, hAT1R; experiment: BRET Gq biosensor assay, agonist response, HEK293 cells; assay type: cell-based; conditions: section of the 42nd table directly before the BRET P63 section
In short: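 HEK293 cells co-transfected with signal-peptide-optimized hAT1R plus Gαq-Rluc, Gβ1 and GFP-Gγ1, assayed 48 h later in Tyrode's buffer pH 7.4. Coelenterazine (2 μM final) added, then compound; BRET2 (515/410 nm) read after 5 min at room temperature. EC50 by 4-parameter fit, normalized to unstimulated (0%) and maximal AngII (100%).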

AGTR1 = target: T2, AGTR1 (Homo sapiens, UniProt P30556); experiment: DiscoveRx β-arrestin2 recruitment assay (enzyme complementation, Pathunter CHO-K1 AGTR1 β-arrestin cell line); assay type: cell-based; conditions: DiscoveRx β-arrestin2 recruitment; for DiscoveRx β-arrestin2 Ymax (%): maximal response
T2 construct: host or cells: Pathunter CHO-K1 AGTR1 β-arrestin cell line (CHO-K1)
T2 sequence (P30556 1-359): T1 sequence (P30556 1-359)
In short: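 CHO-K1 cells expressing AGTR1 with β-arrestin2 enzyme-complementation reporter, plated 14-16 h ahead in 1% serum medium, then exposed to compounds for 90 min at 37° C. Chemiluminescence read after 1 h detection. EC50 (agonist) or IC50 (antagonist) from 4-parameter logistic fit; activity as percentage of All maximal effect.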

hAT1R [3] = target: T1, hAT1R; experiment: cell-based; conditions: section of the 42nd table ending at r951, example numbering restarts after the DiscoveRx section; read-out: β-arrestin2 EC50
hAT1R [4] = target: T1, hAT1R; experiment: BRET β-arrestin2 biosensor assay, higher receptor expression (hAT1R 5 ng/well), HEK293 cells; assay type: cell-based

EC50 (hAT1R [1]) [nM]	EC50 (hAT1R [2]) [nM]	EC50 (AGTR1) [nM]	DiscoveRx β-arrestin2 Ymax (%) (AGTR1)	EC50 (hAT1R [3]) [nM]	Structure (SMILES)	BRET P63 Ymax (hAT1R [1]) [%]	BRET β-Arrestin2 High AT1R Expression Ymax (%) (hAT1R [4])	EC50 (hAT1R [4]; High AT1R Expression) [nM]
> 10000	721	36.1	22.7	6	CCOc1nc2cccc(C(=O)O)c2n1Cc1ccc(-c2cc(Oc3cccc(OC(F)(F)F)c3)ccc2-c2nn[nH]n2)cc1 [Example 335]			
> 10000	47.2	16.4	61.4	12.4	CCOc1nc2cccc(C(=O)O)c2n1Cc1ccc(-c2cc(Oc3ccc(F)cc3)ccc2-c2nn[nH]n2)cc1 [Example 336]			
> 10000	55.8	40.6	85.6	631	CCOc1nc2cccc(C(=O)O)c2n1Cc1ccc(-c2cc(Oc3cnccc3C)ccc2-c2nn[nH]n2)cc1 [Example 337]			
> 10000	30.8	17.8	68.9	16.3	CCOc1nc2cccc(C(=O)O)c2n1Cc1ccc(-c2cc(-n3ccc(C(F)(F)F)n3)ccc2-c2nn[nH]n2)cc1 [Example 338]			
> 10000	52.1	10.6	58.0	12.8	CCOc1nc2cccc(C(=O)O)c2n1Cc1ccc(-c2cc(-n3cnc4ccccc43)ccc2-c2nn[nH]n2)cc1 [Example 339]			
> 10000	478	67.8	31.2	154	CCCCc1nc(Cl)c(C(=O)O)n1Cc1ccc(-c2cc(N3CCC[C@H](C)C3)ccc2-c2nn[nH]n2)cc1 [Example 418, (S)-2-butyl-4-chloro-1-((5′-(3-methylpiperidin-1-yl)-2′-(2H-tetrazol-5-yl)-[1,1′-biphenyl]-4-yl)methyl)-1H-imidazole-5-carboxylic acid]			
> 10000	228	121	33.9	85.2	CCCCc1nc(Cl)c(C(=O)O)n1Cc1ccc(-c2cc(N3CCC[C@@H](C)C3)ccc2-c2nn[nH]n2)cc1 [Example 419, (R)-2-butyl-4-chloro-1-((5′-(3-methylpiperidin-1-yl)-2′-(2H-tetrazol-5-yl)-[1,1′-biphenyl]-4-yl)methyl)-1H-imidazole-5-carboxylic acid]			
> 10000	105	27.3	54.2	47.4	CCCc1nc(CC)c(C(=O)O)n1Cc1ccc(-c2cc(-c3ccccc3)ccc2-c2nn[nH]n2)c(C)c1 [Example 425]			
> 10000	86	34.2	52.5	49.6	CCCc1nc(CC)c(C(N)=O)n1Cc1ccc(-c2cc(-c3ccccc3)ccc2-c2nn[nH]n2)c(C)c1 [Example 426]			
> 10000	575	89.9	19.6	> 10000	CCCCc1nc(Cl)c(C(=O)O)n1Cc1ccc(-c2cc(Oc3ccccn3)ccc2-c2nn[nH]n2)cc1 [Example 427, 2-Butyl-4-chloro-1-((5′-(pyridin-2-yloxy)-2′-(2H-tetrazol-5-yl)-[1,1′-biphenyl]-4-yl)methyl)-1H-imidazole-5-carboxylic acid]			

Structure (SMILES)	EC50 (hAT1R [1]) [nM]	EC50 (hAT1R [2]) [nM]	EC50 (AGTR1) [nM]	DiscoveRx β-arrestin2 Ymax (%) (AGTR1)	EC50 (hAT1R [3]) [nM]	BRET P63 Ymax (hAT1R [1]) [%]	BRET β-Arrestin2 High AT1R Expression Ymax (%) (hAT1R [4])	EC50 (hAT1R [4]; High AT1R Expression) [nM]
CCCCC(=O)N(Cc1ccc(-c2cc(-c3cc(C)ccn3)ccc2-c2nn[nH]n2)cc1)C1(C(=O)O)CCCCC1 [Example 295]	120	217	47.5	60.3	39	12.9	92.5	14
